Laboratory results reported in patent publication US20150105252A1, “SUBSTITUTED PYRAZOLES AS HERBICIDES” (E I DU PONT DE NEMOURS AND COMPANY, priority 2013, published 2015).

How the values were obtained:
[1] = system: sowthistle; experiment: Test E preemergence; type: in vivo, Sonchus oleraceous; conditions: 21 days, scale 0 to 100
Description: (§1) Seeds of plant species selected from bermudagrass (Cynodon dactylon), Surinam grass (Brachiaria decumbens), crabgrass, large (large crabgrass, Digitaria sanguinalis), crabgrass, naked (naked crabgrass, Digitaria nuda), foxtail, green (green foxtail, Setaria viridis), johnsongrass (Sorghum halepense), kochia (Kochia scoparia), morningglory (pitted morningglory, Ipomoea lacunosa), nutsedge, purple (purple nutsedge, Cyperus rotundus), ragweed (common ragweed, Ambrosia elation), mustard, black (black mustard, Brassica nigra), guineagrass (Panicum maximum), dallisgrass (Paspalum dilatatum), barnyardgrass (Echinochloa crus-galli), sandbur (southern sandbur, Cenchrus echinatus), sowthistle (common sowthistle, Sonchus oleraceous), ryegrass, Italian (Italian ryegrass, Lolium multiflorum), signalgrass (broadleaf signalgrass, Brachiaria platyphylla), dayflower, VA (Virginia (VA) dayflower, Commelina virginica), bluegrass (annual bluegrass, Poa annua), quackgrass (Elytrigia repens), mallow (common mallow, Malva sylvestris), buckwheat, wild (wild buckwheat, Polygonum convolvulus), leafy spurge (Euphorbia esula), common chickweed (Stellaria media), wild poinsettia (Euphorbia heterophylla), pigweed, palmer (palmer pigweed, Amaranthus palmeri), and pigweed (redroot pigweed, Amaranthus retroflexus) were planted into a blend of loam soil and sand and treated preemergence with test chemicals formulated in a non-phytotoxic solvent mixture which included a surfactant.
(§2) Treated plants and controls were maintained in a greenhouse for 21 days, after which time all species were compared to controls and visually evaluated. Plant response ratings, summarized in Table E, are based on a scale of 0 to 100 where 0 is no effect and 100 is complete control. A dash (-) response means no test result.

[2] = system: hairy beggarticks; experiment: Test F postemergence; type: in vivo, Bidens pilosa; conditions: scale 0 to 100
Description: (§3) Seeds of plant species selected from corn (Zea mays), soybean (Glycine max), velvetleaf (Abutilon theophrasti), lambsquarters (Chenopodium album), wild poinsettia (Euphorbia heterophylla), pigweed, palmer (palmer pigweed, Amaranthus palmeri), common waterhemp (Amaranthus rudis), surinam grass (Brachiaria decumbens), large crabgrass (Digitaria sanguinalis), crabgrass, Brazil (Brazilian crabgrass, Digitaria horizontalis), fall panicum (Panicum dichotomiflorum), giant foxtail (Setaria faberii), green foxtail (Setaria viridis), goosegrass (Eleusine indica), johnsongrass (Sorghum halepense), common ragweed (Ambrosia elation), barnyardgrass (Echinochloa crus-galli), southern sandbur (Cenchrus echinatus), arrowleaf sida (Sida rhombifolia), Italian ryegrass (Lolium multiflorum), dayflower, VA (Virginia (VA) dayflower, Commelina virginica), field bindweed (Convolvulus arvensis), cocklebur (common cocklebur, Xanthium strumarium), morningglory (Ipomoea coccinea), nightshade (eastern black nightshade, Solanum ptycanthum), kochia (Kochia scoparia), yellow nutsedge (Cyperus esculentus), and hairy beggarticks (Bidens pilosa), were planted into a silt loam soil and treated preemergence with test chemicals formulated in a non-phytotoxic solvent mixture which included a surfactant.
(§4) At the same time, plants from these crop and weed species and also horseweed (Canada horseweed, Conyza canadensis), smartweed (ladysthumb smartweed, Polygonum persicaria), waterhemp_RES1, (ALS & Triazine resistant common waterhemp, Amaranthus rudis), and waterhemp_RES2, (ALS & HPPD resistant common waterhemp, Amaranthus rudis) were treated with postemergence applications of test chemicals formulated in the same manner. Plants ranged in height from 2 to 18 cm for postemergence treatments (1- to 4-leaf stage). Treated plants and controls were maintained in a greenhouse for 14 to 21 days, after which time all species were compared to controls and visually evaluated. Plant response ratings, summarized in Table F, are based on a scale of 0 to 100 where 0 is no effect and 100 is complete control. A dash (-) response means no test result.

[3] = system: crabgrass, Brazil; experiment: Test F postemergence; type: in vivo, Digitaria horizontalis; conditions: scale 0 to 100
Description: as §3, §4

[4] = system: ragweed; experiment: Test E preemergence; type: in vivo, Ambrosia elation; conditions: 21 days, scale 0 to 100
Description: as §1, §2

[5] = system: crabgrass, large; experiment: Test E preemergence; type: in vivo, Digitaria sanguinalis; conditions: 21 days, scale 0 to 100
Description: as §1, §2

[6] = system: kochia; experiment: Test F postemergence; type: in vivo, Kochia scoparia; conditions: scale 0 to 100
Description: as §3, §4

[7] = system: bluegrass; experiment: Test E preemergence; type: in vivo, Poa annua; conditions: 21 days, scale 0 to 100
Description: as §1, §2

[8] = system: common chickweed; experiment: Test E preemergence; type: in vivo, Stellaria media; conditions: 21 days, scale 0 to 100
Description: as §1, §2

[9] = system: Italian ryegrass; experiment: Test A postemergence; type: in vivo, Lolium multiflorum
How it was run: (§5)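 Ratings express plant response from 0 (no effect) to 100 (complete control), judged visually against untreated controls after approximately 10 days in the greenhouse. Preemergence applications were made as directed soil sprays onto seeded loam–sand mix, and postemergence applications onto 2–10 cm plants at one- to two-leaf stage.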

[10] = system: blackgrass; experiment: Test A postemergence; type: in vivo, Alopecurus myosuroides
How it was run: as §5

[11] = Postemergence, 500 g ai/ha, 0 to 100 scale (0 no effect, 100 complete control)
[12] = postemergence, 125 g ai/ha, about 10 days, visual rating on 0 to 100 scale (0 no effect, 100 complete control)

SMILES | Plant response rating, Hairy Beggarticks ([2]; Postemergence, 31 g ai/ha) | Plant response rating, Hairy Beggarticks ([2]; Postemergence, 125 g ai/ha) | Plant response rating, Hairy Beggarticks ([2]; Postemergence, 250 g ai/ha) | Plant response rating, Hairy Beggarticks ([2]; postemergence, 62 g ai/ha) | Plant response rating, Hairy Beggarticks ([2]; postemergence, 500 g ai/ha) | Plant response rating, Crabgrass, Brazil ([3]; Postemergence, 31 g ai/ha) | Plant response rating, Crabgrass, Brazil ([3]; Postemergence, 125 g ai/ha) | Plant response rating, Crabgrass, Brazil ([3]; Postemergence, 250 g ai/ha) | Plant response rating, Crabgrass, Brazil ([3]; postemergence, 62 g ai/ha) | Plant response rating, Crabgrass, Brazil ([3]; postemergence, 500 g ai/ha) | Plant response rating, Ragweed ([4]; 16 g ai/ha) | Plant response rating, Ragweed ([4]; 31 g ai/ha) | Plant response rating, Ragweed ([4]; 62 g ai/ha) | Plant response rating, Ragweed ([4]; 125 g ai/ha) | Plant response rating, Crabgrass, Large ([5]; 16 g ai/ha) | Plant response rating, Crabgrass, Large ([5]; 31 g ai/ha) | Plant response rating, Crabgrass, Large ([5]; 62 g ai/ha) | Plant response rating, Bluegrass ([7]; 16 g ai/ha) | Plant response rating, Bluegrass ([7]; 31 g ai/ha) | Plant response rating, Bluegrass ([7]; 62 g ai/ha) | also measured
CCc1cc(C(=O)NCC(F)(F)F)nn1Cc1ccnc(C(F)(F)F)c1 [Compound 78, 5-ethyl-N-(2,2,2-trifluoroethyl)-1-[[(2-trifluoromethyl)-4-pyridinyl]methyl]-1H-pyrazole-3-carboxamide] | 30 | 50 | 75 | 40 | 90 | 40 | 70 | 90 | 40 | 95 | 75 | 100 | 100 | 100 | 90 | 100 | 100 | 40 | 75 | 90 | Plant response rating, Sowthistle ([1]; 62 g ai/ha): 100; Plant response rating, Sowthistle ([1]; 125 g ai/ha): 100; Plant response rating, Sowthistle ([1]; 250 g ai/ha): 100; Plant response rating, Ragweed ([4]; 250 g ai/ha): 100; Plant response rating, Crabgrass, Large ([5]; 125 g ai/ha): 100; Plant response rating, Crabgrass, Large ([5]; 250 g ai/ha): 100; Plant response rating, Kochia ([6]; Postemergence, 31 g ai/ha): 65; Plant response rating, Kochia ([6]; Postemergence, 125 g ai/ha): 90; Plant response rating, Kochia ([6]; Postemergence, 250 g ai/ha): 90; Plant response rating, Kochia ([6]; postemergence, 62 g ai/ha): 90; Plant response rating, Kochia ([6]; postemergence, 500 g ai/ha): 95; Plant response rating, Bluegrass ([7]; 125 g ai/ha): 100; Plant response rating, Bluegrass ([7]; 250 g ai/ha): 100
CCc1cc(C(=O)NC(C)C)nn1Cc1ccnc(C(F)(F)F)c1 [Compound 103] | – | – | – | – | – | – | – | – | – | – | 5 | 98 | 100 | 100 | 100 | 100 | 100 | 40 | 90 | 95 | Plant response rating, Ragweed ([4]; 250 g ai/ha): 100; Plant response rating, Crabgrass, Large ([5]; 125 g ai/ha): 100; Plant response rating, Crabgrass, Large ([5]; 250 g ai/ha): 100; Plant response rating, Bluegrass ([7]; 125 g ai/ha): 98; Plant response rating, Bluegrass ([7]; 250 g ai/ha): 100; Plant response rating, Common Chickweed ([8]; 16 g ai/ha): 98; Plant response rating, Common Chickweed ([8]; 31 g ai/ha): 100; Plant response rating, Common Chickweed ([8]; 62 g ai/ha): 100; Plant response rating, Common Chickweed ([8]; 125 g ai/ha): 100; Plant response rating, Common Chickweed ([8]; 250 g ai/ha): 100
CCOc1cc(C(=O)NCC(F)(F)F)nn1Cc1ccnc(C(F)(F)F)c1 [Compound 104] | 50 | 60 | 85 | 50 | 90 | 40 | 60 | 90 | 50 | 95 | 100 | 100 | 100 | 100 | 100 | 100 | 100 | 85 | 100 | 100 | Plant response rating, Ragweed ([4]; 250 g ai/ha): 100; Plant response rating, Crabgrass, Large ([5]; 125 g ai/ha): 100; Plant response rating, Crabgrass, Large ([5]; 250 g ai/ha): 100; Plant response rating, Kochia ([6]; Postemergence, 31 g ai/ha): 75; Plant response rating, Kochia ([6]; Postemergence, 125 g ai/ha): 90; Plant response rating, Kochia ([6]; Postemergence, 250 g ai/ha): 95; Plant response rating, Kochia ([6]; postemergence, 62 g ai/ha): 80; Plant response rating, Kochia ([6]; postemergence, 500 g ai/ha): 95; Plant response rating, Bluegrass ([7]; 125 g ai/ha): 100; Plant response rating, Bluegrass ([7]; 250 g ai/ha): 100; Plant response rating, Common Chickweed ([8]; 16 g ai/ha): 100; Plant response rating, Common Chickweed ([8]; 31 g ai/ha): 100; Plant response rating, Common Chickweed ([8]; 62 g ai/ha): 100; Plant response rating, Common Chickweed ([8]; 125 g ai/ha): 100; Plant response rating, Common Chickweed ([8]; 250 g ai/ha): 100
CCONC(=O)c1cc(CC)n(Cc2cc(C(F)(F)F)no2)n1 [Compound 125] | – | – | – | – | – | – | – | – | – | – | – | – | – | – | – | – | – | – | – | – | Italian Ryegrass plant response rating [9, 11]: 80; Italian Ryegrass plant response rating [9, 12]: 20; Blackgrass plant response rating [10, 11]: 90; Blackgrass plant response rating [10, 12]: 30
CCOc1cc(C(=O)NC2CC2)nn1Cc1ccnc(OC(F)F)c1 [Compound 133] | – | – | – | – | – | – | – | – | – | – | – | – | – | – | – | – | – | – | – | – | Italian Ryegrass plant response rating [9, 11]: 80; Italian Ryegrass plant response rating [9, 12]: 60; Blackgrass plant response rating [10, 11]: 100; Blackgrass plant response rating [10, 12]: 90
CCOc1cc(C(=O)NC(C)C)nn1Cc1ccnc(C(F)(F)F)c1 [Compound 188] | 50 | 50 | 60 | 60 | 75 | 20 | 75 | 90 | 30 | 95 | – | – | – | – | – | – | – | – | – | – | Plant response rating, Kochia ([6]; Postemergence, 31 g ai/ha): 40; Plant response rating, Kochia ([6]; Postemergence, 125 g ai/ha): 95; Plant response rating, Kochia ([6]; Postemergence, 250 g ai/ha): 90; Plant response rating, Kochia ([6]; postemergence, 62 g ai/ha): 60; Plant response rating, Kochia ([6]; postemergence, 500 g ai/ha): 95
CCOc1cc(C(=O)NC2CC2)nn1Cc1ccnc(C(F)(F)F)c1 [Compound 189] | – | – | – | – | – | – | – | – | – | – | 100 | 100 | 100 | – | 100 | 100 | 100 | 50 | 50 | 80 | Plant response rating, Sowthistle ([1]; 4 g ai/ha): 98; Plant response rating, Sowthistle ([1]; 8 g ai/ha): 98; Plant response rating, Sowthistle ([1]; 16 g ai/ha): 100; Plant response rating, Sowthistle ([1]; 31 g ai/ha): 100; Plant response rating, Sowthistle ([1]; 62 g ai/ha): 100; Plant response rating, Ragweed ([4]; 8 g ai/ha): 95; Plant response rating, Crabgrass, Large ([5]; 4 g ai/ha): 0; Plant response rating, Crabgrass, Large ([5]; 8 g ai/ha): 95; Plant response rating, Bluegrass ([7]; 4 g ai/ha): 0; Plant response rating, Bluegrass ([7]; 8 g ai/ha): 0
CCc1cc(C(=O)NCC(F)(F)F)nn1Cc1cc(OC(F)F)nn1C [Compound 206] | – | – | – | – | – | – | – | – | – | – | – | – | – | – | – | – | – | – | – | – | Italian Ryegrass plant response rating ([9]; Postemergence, 125 g ai/ha, 0 to 100 scale, 0 no effect, 100 complete control): 0; Italian Ryegrass plant response rating [9, 11]: 50; Blackgrass plant response rating [10, 11]: 50; Blackgrass plant response rating [10, 12]: 0
